Test results reported in US20230028441A1, “NOVEL HETEROARYL-TRIAZOLE COMPOUNDS AS PESTICIDES” (Bayer Aktiengesellschaft, priority 2019, published 2023).

Columns and labels:
Format in all cases: in vivo
[1] = system: brown planthopper (Nilaparvata lugens); assay: Nilaparvata lugens spray test; conditions: in Oryza sativa, 96 h
Description: Solvent: 78.0 parts by weight of acetone • • 1.5 parts by weight of dimethylformamide
(§1) Emulsifier: alkylarylpolyglycol ether
(§2) To produce a suitable preparation of active compound, 1 part by weight of active compound is mixed with the stated amount of solvents and is diluted with water, containing an emulsifier concentration of 1000 ppm, to the desired concentration. Further test concentrations are prepared by dilution with emulsifier containing water.
Rice plants (Oryza sativa) are sprayed with a preparation of the active ingredient of the desired concentration and the plants are infested with the brown planthopper (Nilaparvata lugens).
After 4 days mortality in % is determined. 100% means all planthoppers have been killed and 0% means none of the planthoppers have been killed.

[2] = system: larvae of the southern green stink bug (Nezara viridula); assay: Nezara viridula spray test; conditions: in Hordeum vulgare, 96 h
How it was run: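 Percent mortality of southern green stink bug larvae read 4 days after spraying infested Hordeum vulgare. Test solutions: compound in acetone plus dimethylformamide, diluted with emulsifier-containing water (1000 ppm alkylarylpolyglycol ether).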

[3] = system: larvae of the banded cucumber beetle (Diabrotica balteata); assay: Diabrotica balteata spray test; conditions: 168 h, after 7 days, wheat seeds, read-out: efficacy (seedlings grown up); for pest or weed control at 32 µg/disc, 100 g/ha: 100 g/ha (=32 μg/well); for pest or weed control at 160 µg/disc, 500 g/ha: 500 g/ha (=160 μg/well)
How it was run: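 Efficacy (%) read at day 7: 100% means seedlings grew like untreated, uninfested controls; 0% means no seedlings grew. Wheat seeds germinated 1 day on agar, sprayed with emulsified compound solution (1000 ppm emulsifier in water), then each well infested with 10-20 larvae.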

[4] = system: green peach aphid (Myzus persicae); assay: Myzus persicae spray test; conditions: foliar, 120 h, after 5 days, Chinese cabbage leaf disks
Description: Solvent: 78.0 parts by weight acetone • 1.5 parts by weight dimethylformamide
as §1, §2
Chinese cabbage (Brassica pekinensis) leaf disks infected with all instars of the green peach aphid (Myzus persicae), are sprayed with a preparation of the active ingredient of the desired concentration.
(§3) After 5 days mortality in % is determined. 100% means all aphids have been killed and 0% means none of the aphids have been killed.

[5] = system: adult brown dog ticks (Rhipicephalus sanguineus); assay: Rhipicephalus sanguineus in-vitro contact test with adult brown dog ticks; conditions: after 48 hours, read-out: efficacy (ticks dead or moribund); for pest or weed control at 1 µg/cm2, 100 g/ha: 1 μg/cm^2 (=100 g/ha); for pest or weed control at 5 µg/cm2, 500 g/ha: 5 μg/cm^2 (=500 g/ha)
How it was run: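 Efficacy is the percentage of adult ticks dead or moribund, meaning immotile or uncoordinated and unable to escape 45-50° C. heat within 5 min. Read 48 h after 5-10 ticks were enclosed at room temperature in acetone-coated glass tubes. Dose 5 μg/cm^2, from a 900 ppm coating solution.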

[6] = system: fall armyworm larvae (Spodoptera frugiperda); assay: Spodoptera frugiperda spray test (maize leaf sections); conditions: 168 h
How it was run: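 Percent kill of Spodoptera frugiperda larvae was recorded 7 days after infesting dried, treated maize leaf sections. Spray solutions were made from an acetone/DMF compound preparation diluted with 1000 ppm emulsifier-containing water.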

[7] = system: cattle tick larvae (Rhipicephalus microplus), strain Parkhurst, resistant against synthetic pyrethroids; assay: Rhipicephalus (Boophilus) microplus in-vitro contact test, larval cattle tick; conditions: 5 μg/cm^2 (=500 g/ha), after 48 hours, read-out: efficacy (larvae dead or moribund)
How it was run: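 Efficacy, 100% meaning all larvae dead or moribund, was judged at 48 h from loss of negative geotactic climbing. Larvae of the Parkhurst strain, 20–50 per tube, were exposed at 27° C and 85% humidity to acetone-coated tube surfaces; 900 ppm corresponded to 5 μg/cm^2.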

[8] = system: adult cat fleas (Ctenocephalides felis); assay: Ctenocephalides felis in-vitro contact test, adult cat flea; conditions: 5 μg/cm^2 (=500 g/ha), after 48 hours, read-out: efficacy (fleas dead or moribund)
Description: 9 mg compound is solved in 1 mL acetone and diluted with acetone to the desired concentration. 250 μL of the test solution is filled in 25 mL glass test tubes and homogeneously distributed on the inner walls by rotation and tilting on a shaking device (2 h at 30 rpm). With a compound concentration of 900 ppm, an inner surface of 44.7 cm^2 and a homogeneous distribution, a dose of 5 μg/cm^2 is achieved.
After the solvent has evaporated, each test tube is filled with 5-10 adult cat fleas (Ctenocephalides felis), closed with a perforated lid and incubated in a lying position at room temperature and relative humidity. After 48 hours efficacy is determined. The fleas are patted on the ground of the tubes and are incubated on a heating plate at 45-50° C. for at most 5 minutes. Immotile or uncoordinated moving fleas, which are not able to escape the heat by climbing upwards, are marked as dead or moribund.
An efficacy of 100% means all fleas are dead or moribund; 0% means no fleas are dead or moribund.

[9] = system: adult engorged female ticks (Rhipicephalus microplus); assay: Rhipicephalus (Boophilus) microplus injection test; conditions: 168 h, egg deposition after 7 days, read-out: efficacy (infertile eggs); for pest or weed control at 0.004 mg: 4 μg/animal; for pest or weed control at 0.02 mg: 20 μg/animal
How it was run: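 Efficacy is the share of infertile eggs: 100% means none are fertile, 0% means all are fertile. Egg deposition was checked 7 days after injecting 1 μL of DMSO-diluted compound into the abdomen of five engorged female R. microplus, with doubtful eggs kept about 42 days to hatching. The stock was 10 mg in 0.5 mL DMSO.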

[10] = system: green peach aphid (Myzus persicae); assay: Myzus persicae oral test; conditions: 120 h
Description: Solvent: 100 parts by weight acetone
To produce a suitable preparation of active compound, 1 part by weight of active compound is mixed with the stated amount of solvent, and the concentrate is diluted with water to the desired concentration.
50 μL compound solution is filled in microtiter plates and 150 μL IPL41 insect medium (33%+15% sugar) is added to obtain a total volume of 200 μL per well. Afterwards the plates are sealed with parafilm through which a mixed population of the green peach aphid (Myzus persicae) can suck on the compound preparation.
as §3

[11] = system: adult unfed cat fleas (Ctenocephalides felis); assay: Ctenocephalides felis oral test; conditions: 48 h, 100 ppm in cattle blood, after 2 days
How it was run: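 Percent flea mortality recorded at 2 days. Compound was dissolved in dimethyl sulfoxide and diluted into cattle blood, which ~20 unfed adult cat fleas ingested through parafilm from a 37°C-heated chamber, their own chamber kept at room temperature.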

SMILES	mortality at 500 g/ha [1]	mortality at 500 g/ha [2]	pest or weed control at 32 µg/disc, 100 g/ha [3]	mortality at 100 g/ha [6]	pest or weed control at 5 µg/cm2 [7]	pest or weed control at 5 µg/cm2 [8]	pest or weed control at 0.004 mg [9]	mortality at 4 ppm [10]	mortality at 100 ppm [11]	also measured
C[C@H](NC(=O)c1cc(OC(F)(F)F)cc(S(=O)(=O)C2CC2)c1)c1nc(N)nn1-c1ncccn1 [I-187]	100%	100%	100%	–	–	–	–	–	–	mortality at 100 g/ha [4]: 90%
C[C@H](NC(=O)c1cc(C(F)(F)F)cc(C(F)(F)F)c1)c1nc(N(C)C)nn1-c1ncccn1 [I-141, N-[(1S)-1-[5-(dimethylamino)-2-pyrimidin-2-yl-1,2,4-triazol-3-yl]ethyl]-3,5-bis(trifluoromethyl)benzamide]	100%	100%	100%	100%	100%	100%	–	–	–	pest or weed control at 1 µg/cm2, 100 g/ha [5]: 80%; pest or weed control at 5 µg/cm2, 500 g/ha [5]: 100%
CSc1nc(C(C)NC(=O)c2cc(Cl)cc(S(C)(=O)=O)c2)n(-c2ccc(Cl)cn2)n1 (racemic) [I-059, 3-chloro-N-[1-[2-(5-chloro-2-pyridyl)-5-methylsulfanyl-1,2,4-triazol-3-yl]ethyl]-5-methylsulfonyl-benzamide]	–	100%	100%	–	100%	80%	100%	100%	–	mortality at 500 g/ha [6]: 100%; pest or weed control at 0.02 mg [9]: 100%; mortality at 100 g/ha [2]: 100%; pest or weed control at 160 µg/disc, 500 g/ha [3]: 100%
C[C@H](NC(=O)c1cc(OC(F)(F)F)cc(S(=O)(=O)C2CC2)c1)c1nc(N)nn1-c1ccc(C#N)cn1 [I-205]	–	–	–	100%	–	–	–	–	–	mortality at 100 g/ha [4]: 90%
CC(NC(=O)c1cc(Br)cc(C(F)(F)F)c1)c1nc(N(C)C(=O)OC(C)(C)C)nn1-c1ncccn1 (stereo not drawn) [I-089]	–	–	100%	100%	–	90%	100%	100%	100%	–
CC(NC(=O)c1cc(Cl)cc(C(F)(F)F)c1)c1nc(NC(=O)C2(Cl)CC2)nn1-c1ncccn1 (stereo not drawn) [I-022]	–	–	–	100%	90%	100%	100%	100%	100%	pest or weed control at 1 µg/cm2, 100 g/ha [5]: 100%; pest or weed control at 5 µg/cm2, 500 g/ha [5]: 100%
CNc1nc([C@H](C)NC(=O)c2cc(Br)cc(Br)c2)n(-c2ncccn2)n1 [I-131]	90%	100%	100%	100%	100%	100%	–	–	–	pest or weed control at 1 µg/cm2, 100 g/ha [5]: 100%; pest or weed control at 5 µg/cm2, 500 g/ha [5]: 100%
CNc1nc(C(C)NC(=O)c2cc(Br)cc(Br)c2)n(-c2ncccn2)n1 (stereo not drawn) [I-100]	–	–	100%	100%	100%	100%	100%	100%	100%	pest or weed control at 1 µg/cm2, 100 g/ha [5]: 100%; pest or weed control at 5 µg/cm2, 500 g/ha [5]: 100%
CNc1nc(C(C)NC(=O)c2cc(Cl)cc(Br)c2)n(-c2ncccn2)n1 (stereo not drawn) [I-121]	90%	–	100%	100%	100%	100%	100%	–	100%	pest or weed control at 0.02 mg [9]: 100%
CON(C)c1nc([C@H](C)NC(=O)c2cc(C(F)(F)F)cc(S(C)(=O)=O)c2)n(-c2ncccn2)n1 [I-153]	100%	100%	–	–	–	–	–	–	–	mortality at 100 g/ha [4]: 90%
CC(NC(=O)c1cc(Br)cc(Br)c1)c1nc(N)nn1-c1ccc(C(=O)N2CCOCC2)cn1 (racemic) [I-107, N-[1-[5-amino-2-[5-(morpholine-4-carbonyl)-2-pyridyl]-1,2,4-triazol-3-yl]ethyl]-3,5-dibromo-benzamide]	–	–	–	–	–	90%	–	90%	–	–
C[C@H](NC(=O)c1cc(C(F)(F)F)cc(C(F)(F)F)c1)c1nc(N(C)C(=O)OC(C)(C)C)nn1-c1ncccn1 [I-133, tert-butyl N-[5-[(1S)-1-[[3,5-bis(trifluoromethyl)benzoyl]amino]ethyl]-1-pyrimidin-2-yl-1,2,4-triazol-3-yl]-N-methyl-carbamate]	100%	100%	100%	100%	100%	100%	–	–	–	–
CC(NC(=O)c1cc(Cl)cc(S(C)(=O)=O)c1)c1nc([S+](C)[O-])nn1-c1ccc(Cl)cn1 (racemic) [I-061, 3-chloro-N-[1-[2-(5-chloro-2-pyridyl)-5-methylsulfinyl-1,2,4-triazol-3-yl]ethyl]-5-methylsulfonyl-benzamide]	–	100%	–	–	–	–	–	100%	–	mortality at 100 g/ha [2]: 100%; pest or weed control at 160 µg/disc, 500 g/ha [3]: 100%; mortality at 500 g/ha ([4]; 500 g/ha): 90%
CNc1nc([C@H](C)NC(=O)c2cc(Cl)cc(C(C)(C)C#N)c2)n(-c2ncccn2)n1 [I-137]	90%	100%	100%	100%	80%	90%	–	–	–	–
C[C@H](NC(=O)c1cc(OC(F)(F)F)cc(C2CC2)c1)c1nc(N)nn1-c1ncccn1 [I-216]	–	–	–	100%	–	–	–	–	–	mortality at 100 g/ha [4]: 90%
CC(=O)N(C)c1nc(C(C)NC(=O)c2cc(C(F)(F)F)cc(C(F)(F)F)c2)n(-c2ncccn2)n1 (stereo not drawn) [I-091]	–	–	100%	100%	–	100%	100%	100%	100%	–
